Test results as given in US9211310B2, “Use of a Chinese medicine composition in preparing medicaments for treating secondary prevention of myocardial infarction” (TASLY PHARMACEUTICAL GROUP CO., LTD, priority 2010, dated 2015).

Tested on: patients after acute myocardial infarction
Experiment: Life quality, Seattle Angina Questionnaire (SAQ), same clinical trial
Type: in vivo, human
Conditions: FAS; 1 month after treatment
Description: 3508 patients who were in accordance with the diagnostic standards of AMI for 28 days to 2 years and differentiated as Qi deficiency and blood stagnation syndrome by TCM were studied. 0.5 g Chinese medicine composition prepared by the method of EXAMPLE 1 (Coded as QSYQ) was administrated half an hour after meal, 3 times per day.
There were 19 questions in the Seattle angina questionnaire (SAQ), including 5 parts: physical limitation (PL), anginal stability (AS), anginal frequency (AF), treatment satisfaction (TS) and disease perception (DP). After being given necessary explanation by doctors, the questions were answered independently by patients.
They included the overall survival time, angina pectoris score, TCM symptom score and life quality score, where angina pectoris score, TCM symptom score and life quality score were evaluated at randomization, in 1st, 3rd, 6th, 9th, 12th month after treatment and 18th month after follow-up.
All evaluation results of SAQ were described during the period of observation, and Wilcoxon rank sum test was used for inter-group comparison.
The evaluation results in the SAQ were depicted in different observations, and inter-group comparison was tested by Wilcoxon Rank-sum test.

## CC(=O)Oc1ccccc1C(=O)O [Control group, aspirine]
  8th question: Highly satisfied, patients (%): (17.37%)
  8th question: Mostly dissatisfied, patients (%): (4.07%)
  8th question: Mostly satisfied, patients (%): (50.29%)
  8th question: Partly satisfied, patients (%): (27.92%)
  9th question: Few, patients (%): (26.78%)
  9th question: Mild, patients (%): (36.07%)
  9th question: Moderate, patients (%): (18.81%)
  9th question: Severe, patients (%): (2.24%)
  9th question: Uneffective, patients (%): (16.11%)
  10th question: Dissatisfied, patients (%): (22.71%)
  10th question: Highly satisfied, patients (%): (4.07%)
  10th question: Mostly dissatisfied, patients (%): (22.94%)
  10th question: Mostly satisfied, patients (%): (20.70%)
  10th question: Partly satisfied, patients (%): (29.59%)
  11th question: Continuously worried, patients (%): (6.71%)
  11th question: No worried, patients (%): (4.70%)
  11th question: Occasionally worried, patients (%): (40.94%)
  11th question: Often worried, patients (%): (20.93%)
  11th question: Seldom worried, patients (%): (26.72%)
  SAQ 4th question, 1-2 times per week: % of patients: (17.55%)
  SAQ 4th question, 1-2 times per week: number of patients: 306
  SAQ 4th question, 1-3 times per day: % of patients: (6.54%)
  SAQ 4th question, 1-3 times per day: number of patients: 114
  SAQ 4th question, <1 time per week: % of patients: (9.58%)
  SAQ 4th question, <1 time per week: number of patients: 167
  SAQ 4th question, Not used: % of patients: (53.10%)
  SAQ 4th question, Not used: number of patients: 926
  SAQ 4th question, ≧3 times per week: % of patients: (13.19%)
  SAQ 4th question, ≧3 times per week: number of patients: 230
  SAQ 4th question, ≧4 times per day: % of patients: (0.06%)
  SAQ 4th question, ≧4 times per day: number of patients: 1
  SAQ 5th question, Few: % of patients: (21.56%)
  SAQ 5th question, Few: number of patients: 376
  SAQ 5th question, Mild: % of patients: (28.90%)
  SAQ 5th question, Mild: number of patients: 504
  SAQ 5th question, Moderate: % of patients: (17.43%)
  SAQ 5th question, Moderate: number of patients: 304
  SAQ 5th question, None: % of patients: (26.32%)
  SAQ 5th question, None: number of patients: 459
  SAQ 5th question, Not medicated by doctors: % of patients: (3.38%)
  SAQ 5th question, Not medicated by doctors: number of patients: 59
  SAQ 5th question, Severe: % of patients: (2.41%)
  SAQ 5th question, Severe: number of patients: 42
  SAQ 6th question, Dissatisfied: % of patients: (0.46%)
  SAQ 6th question, Dissatisfied: number of patients: 8
  SAQ 6th question, Highly consent: % of patients: (18.00%)
  SAQ 6th question, Highly consent: number of patients: 314
  SAQ 6th question, Mostly dissatisfied: % of patients: (4.01%)
  SAQ 6th question, Mostly dissatisfied: number of patients: 70
  SAQ 6th question, Mostly satisfied: % of patients: (49.14%)
  SAQ 6th question, Mostly satisfied: number of patients: 857
  SAQ 6th question, Partly satisfied: % of patients: (28.38%)
  SAQ 6th question, Partly satisfied: number of patients: 495
  SAQ 7th question, Dissatisfied: % of patients: (0.17%)
  SAQ 7th question, Dissatisfied: number of patients: 3
  SAQ 7th question, Highly satisfied: % of patients: (23.31%)
  SAQ 7th question, Highly satisfied: number of patients: 406
  SAQ 7th question, Mostly dissatisfied: % of patients: (3.10%)
  SAQ 7th question, Mostly dissatisfied: number of patients: 54
  SAQ 7th question, Mostly satisfied: % of patients: (49.94%)
  SAQ 7th question, Mostly satisfied: number of patients: 870
  SAQ 7th question, Partly satisfied: % of patients: (23.48%)
  SAQ 7th question, Partly satisfied: number of patients: 409
  SAQ Question 1-1 Mildly limited, number of patients: 24
  SAQ Question 1-1 Mildly limited, percent of patients: (1.38%)
  SAQ Question 1-1 Moderately limited, number of patients: 11
  SAQ Question 1-1 Moderately limited, percent of patients: (0.63%)
  SAQ Question 1-1 Not limited, number of patients: 1607
  SAQ Question 1-1 Not limited, percent of patients: (92.20%)
  SAQ Question 1-1 Other reasons, number of patients: 4
  SAQ Question 1-1 Other reasons, percent of patients: (0.23%)
  SAQ Question 1-1 Severely limited, number of patients: 2
  SAQ Question 1-1 Severely limited, percent of patients: (0.11%)
  SAQ Question 1-1 Slightly limited, number of patients: 95
  SAQ Question 1-1 Slightly limited, percent of patients: (5.45%)
  SAQ Question 1-2 Mildly limited, number of patients: 32
  SAQ Question 1-2 Mildly limited, percent of patients: (1.84%)
